Laboratory results: patent US20230103444A1 (The Regents of the University of Colorado, a Body Corporate, priority 2020, published 2023)
Where two headings read alike, the source gives them in different places.

Assays:
[1] = tested on: CRC042 patient-derived tumor organoids; test: Patient tumor organoid cytotoxicity; format: cell-based; settings: Homo sapiens; single agent, Table 4A
[2] = Human microsomal stability; format: in vitro ADME; settings: human microsomes, Table 6, read-out: Microsomal stability Human t1/2
[3] = Pharmacokinetics in CD-1 mice; settings: oral gavage (p.o.) 50 mg/kg
Method: Whole blood was harvested at specific time points and the separated plasma frozen at −80° C. for storage or used for LC-MS/MS analysis.

SW620 tumor organoids [4] = test: Synergy studies with SN38 (LOEWE synergy scores); format: cell-based, human; design: key to LOEWE Synergy Score: % response beyond expectation; <-10 antagonism, -10–10 additive, >10 synergy; settings: for LOEWE Synergy Score: compound at its IC50 (6: 5 μM; 6.3, 6.11: 3 μM)
Method: (§1) Cell based cytotoxicity dose response and combination studies. […] Plates were then incubated for 3 days before treatment.
(e.g., synergy score 20 corresponds to 20% of response beyond expectation). According to our experience, the synergy scores near 0 gives limited confidence on synergy or antagonism.
When the synergy score is: • Less than −10: the interaction between two drugs is likely to be antagonism; • From −10 to 10: the interaction between two drugs is likely to be additivity; • Larger than 10: the interaction between two drugs is likely to be synergy.

HCT116 tumor organoids = test: Tumor organoid cytotoxicity (CellTiter-Glo 3D); format: cell-based, human; settings: Homo sapiens
Method: as §1
Cell Line Tumor Organoid Culture.
(§2) Tumor Organoid Cytotoxicity.

SW620 tumor organoids [5] = test: Tumor organoid cytotoxicity (CellTiter-Glo 3D); settings: Homo sapiens
[6] = tested on: CRC102 patient-derived tumor organoids; test: Patient tumor organoid cytotoxicity; format: cell-based; settings: Homo sapiens; single agent, Table 4A
Method: Patient Cell Tumor Organoid Culture. CRC048 and CRC102 patient cell samples were expanded and cultured as PDTOs using reported methodologies and reagents. (Drost et al., 2016; Sato et al., 2011) Briefly, patient cells were washed with PBS, digested with TrypLE, and filtered through 100 μm cell strainer before used in 3D cell culture. Patient cells were seeded at 5,000 cells per well in 96-well plates, coated with 2% Matrigel, and allowed to self-assemble as PDTOs over 72 h.
as §2

[7] = Mouse liver microsome stability; settings: CD-1, mouse, liver microsomes, pH 7.4, Microsomal stability Mouse t1/2 (min), Table 6
Method: Microsome stability. CD-1 mouse microsomes were commercially purchased and the reactions were performed as previously described. […] The master mix was pre-incubated at 37° C. for 5 min, then 1 mM NADPH was added to start the microsomal activity reaction and maintained at 37° C. throughout the time course. Reactions were stopped at 0, 5, 15, 30, 45, and 60 min by adding 200 μL acetonitrile and analyzed by mass spectrometry. The appropriate microsome controls were also performed in the same reaction conditions.

[8] = tested on: SW620 quasi-mesenchymal (GFP+) tumor xenografts; test: Antitumor activity by oral gavage against SW620 quasi-mesenchymal (GFP+) xenografts; format: in vivo, athymic nude mice
Method: (Esquer et al., 2021) Five days after cell injection, injected mice were randomized into three groups for treatment (Tx). Group 1 (12 mice) received control treatment of gavage vehicle (10% DMSO, 90% PEG 400 (polyethylene glycol 400) by volume). […] Mice were treated once a day, 5 days a week PO (via oral gavage). Mice were weighed and tumor volume assessed twice a week by caliper measurement as illustrated in FIGS. 21A and 21B. At sacrifice, tumors were weighed and measured. In addition, gross observations on condition of mice were made and samples of plasma, tumors, liver spleen and kidneys were collected for further assessment, e.g., drug quantification and toxicity assessment.

SW620 tumor organoids [9] = tested on: SW620 tumor organoids
[10] = combination of 6.11 and irinotecan

Method for SW620 tumor xenografts: In vivo studies. […] Body weight and tumor volumes were monitored 2×/week. […] In addition, irinotecan was administered i.p. at 50 mg/kg.

SMILES: Cc1cc(Nc2ccc(NC(=O)Cc3cc(Br)cs3)cc2)nc(N2CCCC2)n1 [Compound 6.11, 2-(4-bromothiophen-2-yl)-N-(4-((6-methyl-2-(pyrrolidin-1-yl)pyrimidin-4-yl)amino)phenyl)-acetamide]
- IC50 [1]: 4.5 µM
- half-life [2]: 4.38 h
- oral bioavailability, uptake in the plasma [3]: 44%
- LOEWE Synergy Score (SW620 tumor organoids [4]; SN38 0.64 nM): 46
- LOEWE Synergy Score (SW620 tumor organoids [4]; SN38 16 nM): 52
- LOEWE Synergy Score (SW620 tumor organoids [4]; SN38 80 nM): 49
- LOEWE Synergy Score (SW620 tumor organoids [4]; SN38 400 nM): 48
- LOEWE Synergy Score (SW620 tumor organoids [4]; SN38 2000 nM): 36
- LOEWE Synergy Score (SW620 tumor organoids [4]; SN38 10000 nM): 25
- LOEWE Synergy Score (SW620 tumor organoids [4]; SN38 […]): 54
- synergism with irinotecan (and SN38), in words (SW620 tumor organoids [4]; killing SW620 tumor organoids): synergism
- IC50 (HCT116 tumor organoids; HCT-116, 72 h, Table 6, read-out: 3 D Cytotoxicity 72 hr IC50 (μM) HCT116): 3.5 µM
- IC50 (HCT116 tumor organoids; HCT-116, single agent, Table 4A, read-out: Tumor Organoid Cytotoxicity IC50 (μM) HCT116): 3.48 µM
- tumor volume, combination with irinotecan (SW620 tumor xenografts; 6.11 1×/day + irinotecan 50 mg/kg i.p., up to 20 days, M-phenotype xenografts, vs irinotecan alone or control): significantly inhibits colorectal cancer SW620 tumor xenografts
- tumor volume after the last treatment, combination with irinotecan (SW620 tumor xenografts; 6.11 + irinotecan vs irinotecan alone, last treatment day 33): significantly inhibits colorectal SW620 tumors beyond the last treatment
- survival of tumor-bearing mice, combination with irinotecan (SW620 tumor xenografts; 6.11 + irinotecan, compared to irinotecan alone and control): significantly increases the survival
- difference in tumor volume, irinotecan alone vs combination, 8 days post treatment (SW620 tumor xenografts; [10]): 3.4 fold
- drop of tumor volume post treatment (SW620 tumor xenografts; [10]): ~1.5 fold
- IC50 (SW620 tumor organoids [5]; SW-620, 72 h, read-out: 3 D Cytotoxicity 72 hr IC50 (μM) SW620): 2.6 µM
- IC50 (SW620 tumor organoids [5]; SW-620, read-out: IC50 of cytotoxicity in SW620 cells): < 10 µM
- IC50 (SW620 tumor organoids [5]; SW-620, read-out: Tumor Organoid Cytotoxicity IC50 (μM) SW620): 2.6 µM
- IC50 [6]: 8.38 µM
- half-life at 10 μM [7]: 0.954 h
- mouse body weight ([8]; oral gavage 75 and 125 mg/kg vs vehicle): no significant difference in body weight
- tumor volume ([8]; oral gavage 75 and 125 mg/kg, once a day 5 days a week, 27 days): significant dose dependent decrease in tumor volume

SMILES: Cc1cc(Nc2ccc(NC(=O)Cn3cnc4ccccc43)cc2)nc(N2CCCC2)n1 [Compound 6.28, 2-(1H-benzo[d]imidazole-1-yl)-N-(4-((6-methyl-2-(pyrrolidin-1-yl)pyrimidin-4-yl)amino)phenyl) acetamide]
- IC50 (SW620 tumor organoids [9]): > 30 µM
